Assay results reported in ChEMBL document CHEMBL4699594, “Antiplasmodial Alkaloids from the Australian Bryozoan Amathia lamourouxi” (J Nat Prod, 2020).
Activity calls are given as the source filed them. The calls are words filed in the database; no cut-off is given here.

How the values were obtained:
Plasmodium falciparum [1] = assay: Antiplasmodial activity against chloroquine-resistant Plasmodium falciparum Dd2 ring stage incubated for 72 hrs by DAPI-staining based imaging analysis; type: functional, organism-based; details: Dd2, 72 h
[2] = Selectivity index, ratio of IC50 for cytotoxicity against human HEK293 cells to IC50 for antiplasmodial activity against chloroquine-resistant Plasmodium falciparum Dd2 ring stage; type: toxicity, cell-based; details: read-out: Ratio IC50
[3] = Selectivity index, ratio of IC50 for cytotoxicity against human HEK293 cells to IC50 for antiplasmodial activity against chloroquine-sensitive Plasmodium falciparum 3D7 ring stage; type: toxicity, cell-based; details: read-out: Ratio IC50
HEK293 [4] = assay: Cytotoxicity against human HEK293 cells assessed as reduction in cell viability after 72 hrs by resazurin dye based assay; details: HEK293, 72 h
Plasmodium falciparum [5] = assay: Antiplasmodial activity against chloroquine-sensitive Plasmodium falciparum 3D7 ring stage incubated for 72 hrs by DAPI-staining based imaging analysis; type: functional, organism-based; details: 3D7, 72 h
HEK293 [6] = assay: Cytotoxicity against human HEK293 cells assessed as reduction in cell viability at 0.1 uM after 72 hrs by resazurin dye based assay; details: hek293, 72 h
HEK293 [7] = assay: Cytotoxicity against human HEK293 cells assessed as reduction in cell viability at 40 uM after 72 hrs by resazurin dye based assay; details: hek293, 72 h
HEK293 [8] = assay: Cytotoxicity against human HEK293 cells assessed as reduction in cell viability at 4 uM after 72 hrs by resazurin dye based assay relative to control; details: hek293, 72 h
Plasmodium falciparum [9] = assay: Antiplasmodial activity against chloroquine-resistant Plasmodium falciparum Dd2 ring stage at 40 uM incubated for 72 hrs by DAPI-staining based imaging analysis; type: functional, organism-based
Plasmodium falciparum [10] = assay: Antiplasmodial activity against chloroquine-sensitive Plasmodium falciparum 3D7 ring stage at 40 uM incubated for 72 hrs by DAPI-staining based imaging analysis; type: functional, organism-based

Row | SMILES | IC50 (Plasmodium falciparum [1]) | selectivity ratio [2] | selectivity ratio [3] | IC50 (HEK293 [4]) | IC50 (Plasmodium falciparum [5]) | Activity (HEK293 [6]) | Activity (HEK293 [7]) | Activity (HEK293 [8]) | Activity (Plasmodium falciparum [9]) | Activity (Plasmodium falciparum [10])
1 | COc1ccc(C[C@H](N)C(=O)N[C@H]2[C@@H](O)[C@H](n3cnc4c(N(C)C)ncnc43)O[C@@H]2CO)cc1 [PUROMYCIN] | 0.068 µM | 585 | 353 | 0.81 µM |  |  |  |  |  | 
2 | C[C@H]1[C@@H](O)O[C@@H]2O[C@@]3(C)CC[C@H]4[C@H](C)CC[C@@H]1[C@@]24OO3 [ARTENIMOL] |  | 57 | 62 |  | 0.002 µM | Non-Toxic |  |  |  | 
3 | CNCCc1cc(OC)c(Br)cc1Br.O=C(O)C(F)(F)F |  |  | 4 |  | 11 µM |  | Non-Toxic |  |  | 
4 | CCN(CC)CCCC(C)Nc1ccnc2cc(Cl)ccc12 (stereo not drawn) [CHLOROQUINE] |  |  |  |  |  |  |  | 67% |  | 
5 | COc1cc(CCN(C)CCCN(C)C(=O)[C@H](CCN(C)CCc2cc(OC)c(Br)cc2Br)N(C)C)c(Br)cc1Br | 0.75 µM | 53 | 66 |  | 0.61 µM |  | Non-Toxic |  |  | 
6 | Cn1c(Br)c(C=O)c2cc(Br)ccc21 |  |  |  |  |  |  | Non-Toxic |  | inactive | inactive
7 | CN[C@@H](CCN(C)CCc1cc(OC)c(Br)cc1Br)C(=O)NCCCN(C)CCc1cc(OC)c(Br)cc1Br | 1.9 µM | 21 | 25 |  | 1.6 µM |  | Non-Toxic |  |  | 
8 | CN[C@@H](CCN(C)CCc1cc(OC)c(Br)cc1Br)C(=O)N(C)CCCN(C)CCc1cc(OC)c(Br)cc1Br | 0.85 µM | 13 | 20 | 11 µM | 0.57 µM |  |  |  |  | 
9 | COc1cc(CCN(C)CCCN(C)C)c(Br)cc1Br |  |  | 10 | 17 µM | 1.7 µM |  |  |  |  | 
